Data from ChEMBL document CHEMBL3603836, “Hybrid pyrimidine alkynyls inhibit the clinically resistance related Bcr-Abl(T315I) mutant” (Bioorg Med Chem Lett, 2015).

Assays:
[1] = target: Bcr/Abl fusion protein (Homo sapiens, UniProt P00519); assay type: protein assay
Description: Inhibition of wild type Bcr-Abl (unknown origin) using Tyr2 peptide substrate after 2 hrs by FRET-based Z'-lyte assay

[2] = target: Bcr/Abl fusion protein (Homo sapiens, UniProt P00519, T315I); assay type: protein assay
[3] = Antiproliferative activity against mouse BA/F3 cells expressing wild type Bcr-Abl after 72 hrs by CCK-8 assay; assay type: functional, cell-based; settings: BaF3, 72 h
[4] = system: K562; assay: cells; settings: Homo sapiens, K562, 72 h
Description: Antiproliferative activity against human K562 cells expressing wild type Bcr-Abl after 72 hrs by CCK-8 assay

[5] = cells; settings: Mus musculus, BaF3, 72 h
[6] = system: Rattus norvegicus; assay: AUC (0 to infinity) in Sprague-Dawley rat at 25 mg/kg, po; assay type: ADME, organism-based; parameters: dose 25 mg/kg, time infinity, route oral; settings: in vivo
[7] = Cmax in Sprague-Dawley rat at 25 mg/kg, po; assay type: ADME, organism-based; parameters: dose 25 mg/kg, route oral; settings: in vivo
[8] = Tmax in Sprague-Dawley rat at 25 mg/kg, po; assay type: ADME, organism-based; settings: in vivo
[9] = Half life in Sprague-Dawley rat at 25 mg/kg, po; assay type: ADME, organism-based; settings: in vivo
[10] = system: Rattus norvegicus; assay: AUC (0 to infinity) in Sprague-Dawley rat at 10 mg/kg, iv; assay type: ADME, organism-based; parameters: dose 10 mg/kg, time infinity, route intravenous; settings: in vivo
[11] = Cmax in Sprague-Dawley rat at 10 mg/kg, iv; assay type: ADME, organism-based; parameters: dose 10 mg/kg, route intravenous; settings: in vivo
[12] = Tmax in Sprague-Dawley rat at 10 mg/kg, iv; assay type: ADME, organism-based; settings: in vivo
[13] = Half life in Sprague-Dawley rat at 10 mg/kg, iv; assay type: ADME, organism-based; settings: in vivo

For `Cc1cn(-c2cc(NC(=O)c3ccc(C)c(C#Cc4cnc(Nc5ccccc5)nc4)c3)cc(C(F)(F)F)c2)cn1`, the IC50 [1] was 238 nM, the IC50 [2] was 161 nM and the IC50 [3] was 208 nM. The IC50 [4] was 111 nM and the IC50 [5] was 2400 nM.
`CNc1ncc(C#Cc2cc(C(=O)Nc3cc(-n4cnc(C)c4)cc(C(F)(F)F)c3)ccc2C)cn1` gave an IC50 [1] of 10 nM, an IC50 [2] of 6 nM and an IC50 [3] of 3 nM. It also gave an AUC [6] of 48574 µg/L/h, a Cmax [7] of 3090 ng/mL and a Tmax [8] of 2 h. For the same molecule, the half-life [9] was 7.8 h, the AUC [10] was 35809 µg/L/h and the Cmax [11] was 11000 ng/mL. For the same molecule, the Tmax [12] was 1.98 min, the half-life [13] was 7.5 h and the IC50 [4] was 7 nM. For the same molecule, the IC50 [5] was 85 nM.
`Cc1cn(-c2cc(NC(=O)c3ccc(C)c(C#Cc4cnc(N5CCCC5)nc4)c3)cc(C(F)(F)F)c2)cn1` gave an IC50 [1] greater than 1000 nM, an IC50 [2] greater than 1000 nM and an IC50 [3] greater than 1000 nM. For the same molecule, the IC50 [4] was greater than 925 nM and the IC50 [5] was greater than 10000 nM.
`Cc1ccc(NC(=O)c2ccc(CN3CCN(C)CC3)cc2)cc1Nc1nccc(-c2cccnc2)n1` [IMATINIB] gave an IC50 [4] of 280 nM and an IC50 [5] greater than 1000 nM.
Molecule `Cc1cn(-c2cc(NC(=O)c3ccc(C)c(C#Cc4cnc(NCCO)nc4)c3)cc(C(F)(F)F)c2)cn1` has an IC50 [1] of 18 nM, an IC50 [2] of 19 nM and an IC50 [3] of 17 nM. It also gave an IC50 [4] of 13 nM and an IC50 [5] of 1080 nM.
`Cc1nc(Nc2ncc(C(=O)Nc3c(C)cccc3Cl)s2)cc(N2CCN(CCO)CC2)n1` [DASATINIB] gave an IC50 [4] of 1 nM and an IC50 [5] greater than 1000 nM.
Molecule `Cc1cn(-c2cc(NC(=O)c3ccc(C)c(Nc4nccc(-c5cccnc5)n4)c3)cc(C(F)(F)F)c2)cn1` [NILOTINIB] has an IC50 [4] of 22 nM.
`Cc1cn(-c2cc(NC(=O)c3ccc(C)c(C#Cc4cnc(NC(C)(C)C)nc4)c3)cc(C(F)(F)F)c2)cn1` gave an IC50 [1] of 28 nM, an IC50 [2] of 24 nM and an IC50 [3] of 38 nM. For the same molecule, the IC50 [4] was 23 nM and the IC50 [5] was 135 nM.
Molecule `CCNc1ncc(C#Cc2cc(C(=O)Nc3cc(-n4cnc(C)c4)cc(C(F)(F)F)c3)ccc2C)cn1` has an IC50 [1] of 30 nM, an IC50 [2] of 19 nM and an IC50 [3] of 8 nM. For the same molecule, the IC50 [4] was 6 nM and the IC50 [5] was 113 nM.
For `Cc1cn(-c2cc(NC(=O)c3ccc(C)c(C#Cc4cnc(NC(C)C)nc4)c3)cc(C(F)(F)F)c2)cn1`, the IC50 [1] was 125 nM, the IC50 [2] was 187 nM and the IC50 [3] was 23 nM. The IC50 [4] was 27 nM and the IC50 [5] was 1160 nM.
Work on `Cc1cn(-c2cc(NC(=O)c3ccc(C)c(C#Cc4cnc(N5CCOCC5)nc4)c3)cc(C(F)(F)F)c2)cn1` yielded an IC50 [1] of 300 nM, an IC50 [2] greater than 1000 nM and an IC50 [3] of 292 nM. The IC50 [4] was 355 nM and the IC50 [5] was 8430 nM.
`Cc1cn(-c2cc(NC(=O)c3ccc(C)c(C#Cc4cnc(NC5CCCCC5)nc4)c3)cc(C(F)(F)F)c2)cn1` showed an IC50 [1] of 93 nM, an IC50 [2] of 458 nM and an IC50 [3] of 49 nM. The IC50 [4] was 30 nM and the IC50 [5] was 2710 nM.
`Cc1cn(-c2cc(NC(=O)c3ccc(C)c(C#Cc4cnc(N)nc4)c3)cc(C(F)(F)F)c2)cn1` gave an IC50 [1] of 8 nM, an IC50 [2] of 7 nM and an IC50 [3] of 2 nM. The IC50 [4] was 1 nM and the IC50 [5] was 78 nM.
`Cc1cn(-c2cc(NC(=O)c3ccc(C)c(C#Cc4cnc(N5CCCCC5)nc4)c3)cc(C(F)(F)F)c2)cn1` gave an IC50 [1] of 904 nM, an IC50 [2] greater than 1000 nM and an IC50 [3] of 683 nM. For the same molecule, the IC50 [4] was 640 nM and the IC50 [5] was greater than 10000 nM.
